The results in this text go back to patent US20080124376A1, “OCULAR DEVICES AND METHODS OF MAKING AND USING THEREOF” (NOVARTIS AG, priority 2006, published 2008).

Where a name gives a salt, the structure may show the parent alone.

Assay type in all cases: physicochemical
The nature of data set [1]: Aqueous passive and agitated release from ASM981-loaded Nelfilcon membrane. The settings on record: membrane of 1% ASM981 in Nelfilcon. Here is the method: The addition of Pimecrolimus (SDZ ASM981), which is synthesized by Novartis Pharma, in solution form to Nelfilcon macromer increases the liquid content of the macromer. Simple addition of the ASM981 consequently diluted the macromer and photopolymerisation produced wet structurally incoherent product. A membrane composed of 1% ASM981 was prepared by adding 1 g of the ASM981 solution to 5 g of nelfilcon macromer, vortexing for approximately 5 minutes, and removing the lid of the vial to remove excess water. The mass of the ASM981-loaded macromer was allowed to return to its original 5 g. This was conveniently achieved by leaving the mixture overnight on a flatbed shaker under a nitrogen blanket. The mixture was then placed in a membrane mould and polymerised under a static UV lamp. The mixture was successfully polymerised to form a coherent membrane, and the resultant membrane was opaque in appearance.

A short description of data set [2]: Direct loading of drug into the Nelfilcon macromer (loading level). Conditions: drug loaded directly into Nelfilcon macromer. The method, then:
A mixture of Nelfilcon and cromolyn sodium was polymerised to form a membrane, and 1.5 cm diameter discs were cut out and the release profile examined. The release profile of the directly loaded and the absorbed drug described above were compared. Direct loading levels were much lower (approx. 20 μg per lens) than the 1 mg per lens absorbed from a 4% solution.

The nature of data set [3]: Trigger release in vortex eye model (in vitro in-eye release model). The settings on record: for triggered release: in eye model (vortex); for trigger release following passive diffusion: drug loaded via absorption into Dailies matrix. Here is the method:
The vortex model is the in vitro in-eye release model described in commonly owned copending US Patent Application Publication No. 2006/0251696 A1 (herein incorporated by reference in its entirety). The experiment is carried out as follows. A contact lens is first blotted dry and immediately is carefully placed into 100 microliter of an extraction medium in an tube (e.g., a centrifuge tube, a scintillation vial, or preferably an Eppendorf microtube) and the microtube is agitated for fifteen seconds using, e.g., a Vibrex vortex mixer. At the end of one hour period, the tube is again agitated using, e.g., a Vibrex vortex mixer, for a further fifteen seconds. The extraction medium is removed from the Eppendorf microtube and 100 microliter of a fresh extraction medium is added. Extraction samples are stored at 25° C. between agitation procedures. The concentration of a guest material extracted out of a lens can be determined according to any methods known to a person skilled in the art.

Data set [4] is described as follows: Passive diffusion release from drug-loaded lens / Nelfilcon membrane discs. Here is the method:
Cromolyn sodium was strongly absorbed by the […] matrix. The amount absorbed from a 4% concentration (equivalent to an ophthalmic solution) soak solution was on the order of 1 mg. Approximately 100 μg was released passively during a short burst period, leaving some 900 μg for release by trigger mechanism. […] A mixture of Nelfilcon and cromolyn sodium was polymerised to form a membrane, and 1.5 cm diameter discs were cut out and the release profile examined. The release profile of the directly loaded and the absorbed drug described above were compared. Direct loading levels were much lower (approx. 20 μg per lens) than the 1 mg per lens absorbed from a 4% solution. […] Ketotifen fumarate was used at much lower levels in ophthalmic solution (0.025%) than cromolyn sodium, which was reflected in the uptake experiments. Ketotifen fumarate was absorbed from a 0.025% solution into the lens at a level of 35 μg, with a modest amount released during a short burst period, leaving approximately 30 μg retained in the matrix. This is a very significant payload in relation to daily requirements. […] A mixture of Nelfilcon and ketotifen fumarate was polymerised to form a membrane, and 1.5 cm diameter discs were cut out and the release profile examined. The release profile of the directly loaded and the absorbed drug described above were compared. As with cromolyn sodium, the matrix distribution of the drug loaded directly into the polymer matrix produced differences in release behaviour compared to the absorbed drug.

A short description of data set [5]: Drug uptake via absorption into the Dailies matrix from soak solution. Here is the method: Cromolyn sodium was strongly absorbed by the Dailies matrix. The amount absorbed from a 4% concentration (equivalent to an ophthalmic solution) soak solution was on the order of 1 mg. Approximately 100 μg was released passively during a short burst period, leaving some 900 μg for release by trigger mechanism.
Ketotifen fumarate was used at much lower levels in ophthalmic solution (0.025%) than cromolyn sodium, which was reflected in the uptake experiments. Ketotifen fumarate was absorbed from a 0.025% solution into the lens at a level of 35 μg, with a modest amount released during a short burst period, leaving approximately 30 μg retained in the matrix. This is a very significant payload in relation to daily requirements.

A short description of data set [6]: Release of Rose Bengal from Nelfilcon lenses in PBS and lysozyme solution.
Data set [7] can be described thus: Release of hyaluronan from Nelfilcon matrix in artificial lacrimal solution. Here is the method:
Using the techniques above, a mixture of Nelfilcon and varying amounts of hyaluronan was polymerised to form a membrane. The amount of hyaluronan loaded into the Nelfilcon macromer was 2, 6.5, and 40 mg hyaluronan/g nelfilcon (30% by weight aqueous solution). The hyaluronan used was approximately 50 kDa, 100 kDa, and 1 million Da.
The release of hyaluronan from the membrane was investigated by varying the amount and length of the hyaluronan incorporated into the matrix. Release studies were performed by placing each lens in a solution of 5 mL of artificial lacrimal solution at 35° C.

Data set [8] in a line: Heat stability of Nelfilcon lens with hyaluronan. The settings on record: lens in 6.5 mg/mL hyaluronan solution, pH 11, 120° C. for 40 minutes; FIG. 3. Here is the method:
Heat stability studies were also performed on the membranes. A lens prepared from 6.5 mg/mL loading of 1 M Da hyaluronan was placed in a tube of 6.5 mg/mL solution of hyaluronan at a pH of 11. The tube was sealed with a total volume of 0.8 mL, and the solution was heated at 120° C. for 40 minutes.

Setting [9] is: drug loaded directly into Nelfilcon macromer.

Consider `CC[C@@H]1/C=C(\C)C[C@H](C)C[C@H](OC)[C@H]2O[C@@](O)(C(=O)C(=O)N3CCCC[C@H]3C(=O)O[C@H](/C(C)=C/[C@@H]3CC[C@H](Cl)[C@H](OC)C3)[C@H](C)[C@@H](O)CC1=O)[C@H](C)C[C@@H]2OC` [ASM981, Pimecrolimus], for which, in data set [1], the “aqueous passive and agitated release” value is recorded as “no release was observed”.

Regarding `O=C(O)c1cc(=O)c2c(OCC(O)COc3cccc4oc(C(=O)O)cc(=O)c34)cccc2o1` [Cromolyn sodium], the direct loading level entry in data set [2] is given as “approx. 20 μg per lens”. The triggered release entry in data set [3] (setting [9]) is recorded as “very significant triggered release”. Also, the “trigger release following passive diffusion” value in data set [3] (vortex eye model) is reported as “significant release”. The “amount released passively during a short burst period” value in data set [4] (drug absorbed into Dailies matrix from 4% solution) is “Approximately 100 μg”. In addition, the “amount left for release by trigger mechanism” value in data set [4] (drug absorbed into Dailies matrix from 4% solution, after burst) was about 900 µg. The passive release result in data set [4] (drug loaded directly into Nelfilcon macromer, 1.5 cm discs) was “virtually zero passive release”. Moreover, the “amount absorbed from soak solution” value in data set [5] (4% concentration soak solution) is given as about 1 mg.

In the case of `CN1CCC(=C2c3ccccc3CC(=O)c3sccc32)CC1` [Ketotifen fumarate], the “effect of albumin on trigger release” value in data set [3] (drug absorbed into Dailies matrix, albumin) was “little effect”. Also, the “effect of positively charged proteins such as lysozyme on trigger release” value in data set [3] (drug absorbed into Dailies matrix, lysozyme) is “significant enhanced effect”. The triggered release entry in data set [3] (setting [9]) was “very effective further release”. Besides, the “effect of positively charged tear protein (lysozyme) on trigger release” value in data set [3] (drug loaded directly into Nelfilcon macromer, vortex eye model) was “enhanced”. The “trigger release following passive diffusion” value in data set [3] (vortex eye model) is reported as “enhanced triggered release susceptibility”. For the same compound, the “amount released during a short burst period” value in data set [4] (drug absorbed into Dailies matrix from 0.025% solution) is “modest amount”. Also, in data set [4] (drug absorbed into Dailies matrix from 0.025% solution, after burst), the “amount retained in the matrix” value is reported as “approximately 30 μg”. For the same compound, the “time for passive diffusion to come to equilibrium” value in data set [4] (setting [9]) is “three”. Also, the “amount absorbed into the lens” value in data set [5] (0.025% solution) was determined as 35 µg.

With `O=C([O-])c1c(Cl)c(Cl)c(Cl)c(Cl)c1-c1c2cc(I)c(=O)c(I)c-2oc2c(I)c([O-])c(I)cc12.[Na+].[Na+]` [Rose Bengal], in data set [6] (Nelfilcon lens loaded with Rose Bengal), the “stability of loaded lens in saline solutions” value was “stable in saline solutions for extended periods of time”. In addition, the “release in PBS solution with no lysozyme” value in data set [6] (Nelfilcon lens, approximately minute 150, FIG. 4) was “little to no Rose Bengal was released”. Moreover, the “release in a solution of lysozyme” value in data set [6] (Nelfilcon lens, from minute zero, FIG. 4) is “released steadily”.

On to hyaluronan, for which the “effect of increasing the amount of hyaluronan on release” value in data set [7] (2, 6.5, 40 mg hyaluronan/g nelfilcon, FIG. 2) is “significantly affects the release”.

In the case of hyaluronan [1 M Da hyaluronan], the “heat stability: release over time after heating” value in data set [8] is “release curve is similar to that of the release of hyaluronan from the matrix that is not heated”. For the same compound, the “release pattern (release rate)” value in data set [7] (loading 6.5 mg HA/g nelfilcon, 5 mL artificial lacrimal solution, 35° C., FIG. 1) is given as “relatively constant release rate from 2 to 48 hours”.
